Data on two compounds can be found in the NIST ThermoML archive (doi:10.1021/je800331n).

Numbers after ± are expanded uncertainties.

For the data set the following is noted: Liquid, Vibrating tube method.

Consider `CCCCn1cc[n+](C)c1.F[P-](F)(F)(F)(F)F` [1-butyl-3-methylimidazolium hexafluorophosphate], for which the mass density – broadly, mass per unit of volume – came out at 1366.57 ± 0.55 kg/m3 (298.15 K); 1362.23 ± 0.54 kg/m3 (303.15 K); 1357.92 ± 0.54 kg/m3 (308.15 K); 1353.63 ± 0.53 kg/m3 (313.15 K); 1345.33 ± 0.53 kg/m3 (323.15 K).

With `CCCCn1cc[n+](C)c1.F[B-](F)(F)F` [1-butyl-3-methylimidazolium tetrafluoroborate], the mass density was 1192.03 ± 0.39 kg/m3 (298.15 K); 1188.38 ± 0.39 kg/m3 (303.15 K); 1181.25 ± 0.38 kg/m3 (313.15 K); 1174.18 ± 0.37 kg/m3 (323.15 K); 1167.09 ± 0.37 kg/m3 (333.15 K); 1160.17 ± 0.36 kg/m3 (343.15 K). For the setting “353.15 K”, the mass density is 1152.63 ± 0.36 kg/m3.
